This note sets out measurements from patent publication US9737502B2, “Calebin A for hepatic steatosis” (SAMI LABS LIMITED, priority 2011, dated 2017).

The structures appear in SMILES notation.

One experiment relates to IL-1β. As to the kind of experiment: Extracellular IL-1β in LPS-stimulated murine neutrophils. The class given is cell-based. To be noted: 100 μg/ml.
A further experiment relates to TNF-α. The experiment is described as follows: Intracellular TNF-α in LPS-stimulated murine neutrophils (flow cytometry). The class given is cell-based. The note with it: 100 μg/ml. As to the method:
The present inventors also adduce extra evidence to support the ability of Calebin A to suppress intracellular TNF and extracellular IL-1β in murine neutrophil systems (Table II, Table III). Neutrophils are isolated by histopaque gradient method tested for their ability to produce in vitro TNF-α following stimulation with Lipopolysaccharide (LPS). The cells were incubated with phycoerythrin (PE)-labeled anti-mouse TNF-α in the dark, and after being washed with sterile PBS, samples were resuspended in PBS (pH 7.4) and acquired directly on the flow cytometer (BDLSR; Becton Dickinson). A fluorescence trigger was set on the PE […] parameter of the gated neutrophil populations (10,000 events). Rolipram at 100 μg/ml was used as standard inhibitor of TNF-α in this study. Fluorescence compensation, data analysis, and data presentation were performed using Cell Quest Pro software (Becton Dickinson).

Consider `COc1ccc(C2CNC(=O)C2)cc1OC1CCCC1` (stereo not shown) [Rolipram, reference compound], for which the “% Activity (suppression of IL-1 β expression)” value with IL-1β is listed as 56.52%↓. Also, the “IL-1β Concentration” value with IL-1β (LPS Control 51.80 ± 2.18) is 22.52 ± 1.60 pg/mL. In addition, in the experiment on TNF-α, the “% Activity (suppression of TNF-α expression)” value was 72.13%↓. Besides, the “Expression of TNF-α Mean ± S.E” value in the experiment with TNF-α (LPS Control 2.62 ± 0.01) came out at 0.73 ± 0.09.
